Assay results from patent publication US4065495A (Zaidan Hojin Biseibutsu Kagaku Kenkyu Kai, priority 1975, dated 1977).
Values after ≈ are worked out from the molar mass of the structure shown.

Assays:
Sarcina lutea PCI1001 = assay: Minimum inhibitory concentration, Sarcina lutea PCI1001; format: cell-based; details: Micrococcus luteus, 0.5% peptone agar, 37° C., 17 hours
Procedure: (§1) *Minimum inhibitory concentrations were determined on a 0.5% peptone agar
(§2) by incubation at 37° C. for 17 hours.

Proteus rettgeri GN311 = assay: Minimum inhibitory concentration, Proteus rettgeri GN311; format: cell-based; details: Providencia rettgeri, 0.5% peptone agar, 37° C., 17 hours
Procedure: as §1, §2

[1] = system: Mycobacterium smegmatis ATC607; assay: Minimum inhibitory concentration, Mycobacterium smegmatis ATC607; format: cell-based; details: Mycolicibacterium smegmatis, 0.5% peptone agar, 37° C., 17 hours
Procedure: as §1, §2

[2] = system: Pseudomonas aeruginosa No. 12; assay: Minimum inhibitory concentration, Pseudomonas aeruginosa No. 12; format: cell-based; details: 0.5% peptone agar, 37° C., 17 hours
Procedure: as §1, §2

[3] = system: Pseudomonas aeruginosa A3; assay: Minimum inhibitory concentration, Pseudomonas aeruginosa A3; format: cell-based; details: 0.5% peptone agar, 37° C., 17 hours
Procedure: as §1, §2

[4] = system: Klebsiella pneumoniae PCI602; assay: Minimum inhibitory concentration, Klebsiella pneumoniae PCI602; format: cell-based; details: 0.5% peptone agar, 37° C., 17 hours
Procedure: as §1, §2

Proteus rettgeri GN466 = assay: Minimum inhibitory concentration, Proteus rettgeri GN466; format: cell-based; details: Providencia rettgeri, 0.5% peptone agar, 37° C., 17 hours
Procedure: as §1, §2

Salmonella typhi T-63 = assay: Minimum inhibitory concentration, Salmonella typhi T-63; format: cell-based; details: Salmonella enterica, 17 h, read-out: Minimum Inhibitory Concentration
Procedure: as §1, §2

[5] = system: Staphylococcus aureus FDA209P; assay: Minimum inhibitory concentration, Staphylococcus aureus FDA209P; format: cell-based; details: 0.5% peptone agar, 37° C., 17 hours
Procedure: as §1, §2

[6] = system: Bacillus subtilis NRRL B-558; assay: Minimum inhibitory concentration, Bacillus subtilis NRRL B-558; format: cell-based; details: NRRLB558, 0.5% peptone agar, 37° C., 17 hours
Procedure: as §1, §2

Serratia marcescens = assay: Minimum inhibitory concentration, Serratia marcescens; format: cell-based; details: 0.5% peptone agar, 37° C., 17 hours
Procedure: as §1, §2

Micrococcus flavus FDA16 = assay: Minimum inhibitory concentration, Micrococcus flavus FDA16; format: cell-based; details: 0.5% peptone agar, 37° C., 17 hours
Procedure: as §1, §2

[7] = system: Gram-positive and Gram-negative bacteria; assay: Antibacterial activity against Gram-positive and Gram-negative bacteria; format: cell-based; details: in words
Procedure: as §1, §2

[8] = system: Staphylococcus aureus Smith; assay: Minimum inhibitory concentration, Staphylococcus aureus Smith; format: cell-based; details: 0.5% peptone agar, 37° C., 17 hours
Procedure: as §1, §2

Proteus vulgaris OX-19 = assay: Minimum inhibitory concentration, Proteus vulgaris OX-19; format: cell-based; details: OX19, 0.5% peptone agar, 37° C., 17 hours
Procedure: as §1, §2

Escherichia coliK-12 = assay: Minimum inhibitory concentration, Escherichia coli K-12; format: cell-based; details: 0.5% peptone agar, 37° C., 17 hours
Procedure: as §1, §2

[9] = system: Escherichia coli K-12 ML1629; assay: Minimum inhibitory concentration, Escherichia coli K-12 ML1629; format: cell-based; details: K12ML1629, 0.5% peptone agar, 37° C., 17 hours
Procedure: as §1, §2

[10] = Stability in aqueous or 0.02N HCl aqueous solution; format: physicochemical; details: in words
Pseudomonas fluorescens = assay: Minimum inhibitory concentration, Pseudomonas fluorescens; format: cell-based; details: 0.5% peptone agar, 37° C., 17 hours
Procedure: as §1, §2

Escherichia coli NIHJ = assay: Minimum inhibitory concentration, Escherichia coli NIHJ; format: cell-based; details: 0.5% peptone agar, 37° C., 17 hours
Procedure: as §1, §2

SMILES | MIC (Sarcina lutea PCI1001) [µg/mL] | MIC (Proteus rettgeri GN311) [µg/mL] | MIC [1] [µg/mL] | MIC [2] [µg/mL] | MIC [3] [µg/mL] | MIC [4] [µg/mL] | MIC (Proteus rettgeri GN466) [µg/mL] | MIC (Salmonella typhi T-63) [µg/mL] | MIC [5] [µg/mL] | MIC [6] [µg/mL] | MIC (Serratia marcescens) [µg/mL] | MIC (Micrococcus flavus FDA16) [µg/mL] | inhibition of growth of Gram-positive and Gram-negative bacteria [7] | MIC [8] [µg/mL] | MIC (Proteus vulgaris OX-19) [µg/mL] | MIC (Escherichia coliK-12) [µg/mL] | MIC [9] [µg/mL] | stability in aqueous solution (general statement) [10] | MIC (Pseudomonas fluorescens) [µg/mL] | MIC (Escherichia coli NIHJ) [µg/mL]
CN(CC(=O)O)NC(=O)C[C@H](N)CCCN [Deoxynegamycin] | > 100 | 6.25 (≈ 26.9 µM) | 50 (≈ 215 µM) | 50 (≈ 215 µM) | 25 (≈ 108 µM) | 6.25 (≈ 26.9 µM) | 3.13 (≈ 13.5 µM) | 0.78 (≈ 3.36 µM) | 25 (≈ 108 µM) | 100 (≈ 431 µM) | 25 (≈ 108 µM) | 50 (≈ 215 µM) | active against Gram-positive and Gram-negative bacteria | 6.25 (≈ 26.9 µM) | 3.13 (≈ 13.5 µM) | 3.13 (≈ 13.5 µM) | 3.13 (≈ 13.5 µM) | quite stable in aqueous solution | 3.13 (≈ 13.5 µM) | 6.25 (≈ 26.9 µM)
CO[C@@H](CN)C[C@@H](N)CC(=O)NN(C)CC(=O)O [O-Methylnegamycin] | 25 (≈ 95.3 µM) | 6.25 (≈ 23.8 µM) | 25 (≈ 95.3 µM) | 25 (≈ 95.3 µM) | 12.5 (≈ 47.7 µM) | 6.25 (≈ 23.8 µM) | 3.13 (≈ 11.9 µM) | 1.56 (≈ 5.95 µM) | 12.5 (≈ 47.7 µM) | 50 (≈ 191 µM) | 25 (≈ 95.3 µM) | 50 (≈ 191 µM) | active against Gram-positive and Gram-negative bacteria | 6.25 (≈ 23.8 µM) | 1.56 (≈ 5.95 µM) | 3.13 (≈ 11.9 µM) | 1.56 (≈ 5.95 µM) | quite stable in aqueous solution | 1.56 (≈ 5.95 µM) | 6.25 (≈ 23.8 µM)
